Read-outs that look alike come from different tables or passages of the source.
Legend:
[1] = Water solubility
[2] = tested on: L-1210 Leukemia; experiment: L-1210 Leukemia (Table IX); format: in vivo, mice
Experimental: The sodium and ammonium salts of the present invention were tested against transplantable mouse tumors as indicated below.

[3] = tested on: B16 Melanoma; experiment: B16 Melanoma - Test 1 (ip tumor brei); format: in vivo, mice; conditions: for Effect MST % T/C / MST Days: QD 1→9, vehicle H2O
[4] = tested on: L1210 Leukemia; experiment: L1210 Leukemia - Test 3 (vehicle comparison); format: in vivo, mice; conditions: for Effect MST % T/C / MST Days: Day 1 only
[5] = tested on: B16 Melanoma; experiment: B16 Melanoma - Test 2 (ip tumor brei); format: in vivo, mice; conditions: QD +9
[6] = tested on: L1210 Leukemia; experiment: L1210 Leukemia - Test 1 (survival of tumor-bearing mice); format: in vivo; conditions: for Effect MST % T/C / MST Days: d. 1 only
Text: This evaluation of the ammonium salt finds the drug to be active against L1210 (ip) leukemia when administered ip one day post-implant of 10^6 L1210 cells (maximum T/C was 164%). […] The vehicle for the ammonium salt was water.

## O=C1[O][Pt-2]2([NH2+]CC3(CCCCC3)C[NH2+]2)[O]C(=O)C1O [2-hydroxymalonato (1,1-diaminomethylcyclohexane)platinum (II)]
[1]
  Water-solubility at room temperature: < 1.6 mg/mL
[2]; 2 mg/kg/inj ip, qd 1→9
  Average Weight Change,g: -1.3 g
  Effect MST % T/C: 138 % T/C
  MST Days: 9.0 days
  Survivors Day 5(45): 6/6
[2]; 4 mg/kg/inj ip, qd 1→9
  Average Weight Change,g: -1.7 g
  Effect MST % T/C: 192 % T/C
  MST Days: 12.5 days
  Survivors Day 5(45): 6/6
[2]; 8 mg/kg/inj ip, qd 1→9
  Average Weight Change,g: -2.1 g
  Effect MST % T/C: 269 % T/C
  MST Days: 17.5 days
  Survivors Day 5(45): 6/6
[2]; 12 mg/kg/inj ip, Day 1
  Average Weight Change,g: -1.6 g
  Effect MST % T/C: 185 % T/C
  MST Days: 12.0 days
  Survivors Day 5(45): 6/6
[2]; 12 mg/kg/inj ip, qd 1→9
  Average Weight Change,g: -2.1 g
  Effect MST % T/C: 269 % T/C
  MST Days: 17.5 days
  Survivors Day 5(45): 6/6
[2]; 18 mg/kg/inj ip, Day 1
  Average Weight Change,g: -2.0 g
  Effect MST % T/C: 169 % T/C
  MST Days: 11.5 days
  Survivors Day 5(45): 6/6
[2]; 24 mg/kg/inj ip, Day 1
  Average Weight Change,g: -2.8 g
  Effect MST % T/C: 223 % T/C
  MST Days: 14.5 days
  Survivors Day 5(45): 6/6
[2]; 36 mg/kg/inj ip, Day 1
  Average Weight Change,g: -3.6 g
  Effect MST % T/C: 246 % T/C
  MST Days: 16.0 days
  Survivors Day 5(45): 5/6
[2]; qd 1→9 (cis-DDP 2.4, parent 8 and 12, sodium salt 12 mg/kg/injection)
  maximum T/C: 269%
[2]; single ip injection at maximum tolerated dose (cis-DDP 8 mg/kg, the two others 36 mg/kg)
  maximum T/C: 246%

## [NH2][Pt]1([NH2])[O]C(=O)C([O-])C(=O)[O]1.[NH4+] [Example 1, 2-Hydroxymalonato diammine platinum (II), ammonium salt]
[3]; 4 mg/kg/day ip
  Effect MST % T/C: 192 % T/C
  MST Days: 37.5 days
[3]; 8 mg/kg/day ip
  Effect MST % T/C: 190 % T/C
  MST Days: 37.0 days
[3]; 16 mg/kg/day ip
  Effect MST % T/C: 121 % T/C
  MST Days: 23,5 Days
[3]; 24 mg/kg/day ip
  Effect MST % T/C: 36 % T/C
  MST Days: 7.0 days
[3]; 32 mg/kg/day ip
  Effect MST % T/C: 31 % T/C
  MST Days: 6.0 days
[3]; ip B16, ip QD 1→9
  maximum T/C: 190%
other
  Water-solubility at room temperature: 10 mg/mL
water
  Solubility in H2O at 22-25°C: 10 mg/mL
[4]; 40 mg/kg ip, vehicle H2O
  Effect MST % T/C: 143 % T/C
  MST Days: 10.0 days
[4]; 40 mg/kg ip, vehicle Saline
  Effect MST % T/C: 114 % T/C
  MST Days: 8.0 days
[4]; 60 mg/kg ip, vehicle H2O
  Effect MST % T/C: 143 % T/C
  MST Days: 10.0 days
[4]; 60 mg/kg ip, vehicle Saline
  Effect MST % T/C: 100 % T/C
  MST Days: 7.0 days
[4]; 80 mg/kg ip, vehicle H2O
  Effect MST % T/C: 143 % T/C
  MST Days: 10.0 days
[4]; 80 mg/kg ip, vehicle Saline
  Effect MST % T/C: 114 % T/C
  MST Days: 8.0 days
[4]; 100 mg/kg ip, vehicle H2O
  Effect MST % T/C: 107 % T/C
  MST Days: 7.5 days
[4]; 100 mg/kg ip, vehicle Saline
  Effect MST % T/C: 143 % T/C
  MST Days: 10.0 days
[4]; single dose ip, saline and water as vehicles
  Maximum increase in median lifespan (T/C): 143%
[5]; 2 mg/kg/day ip
  Average Weight Change: -0.7 g
  Effect MST % T/C: 153 % T/C
  MST Days: 31.5 days
[5]; 4 mg/kg/day ip
  Average Weight Change: -2.0 g
  Effect MST % T/C: 158 % T/C
  MST Days: 32.5 days
[5]; 8 mg/kg/day ip
  Average Weight Change: -0.9 g
  Effect MST % T/C: 180 % T/C
  MST Days: 37.0 days
[5]; 16 mg/kg/day ip
  Average Weight Change: -1.3 g
  Effect MST % T/C: 234 % T/C
  MST Days: 48.0 days
[5]; Day 10, 2 mg/kg/day ip
  Survivors Day 10 (60): 9/10
[5]; Day 10, 4 mg/kg/day ip
  Survivors Day 10 (60): 9/10
[5]; Day 10, 8 mg/kg/day ip
  Survivors Day 10 (60): 9/10
[5]; Day 10, 16 mg/kg/day ip
  Survivors Day 10 (60): 8/10
[5]; Day 60 (figure in parentheses), 16 mg/kg/day ip
  Survivors Day 10 (60): 2
[6]; 10 mg/kg/day ip
  Effect MST % T/C: 136 % T/C
  MST Days: 9.5 days
[6]; 20 mg/kg/day ip
  Effect MST % T/C: 129 % T/C
  MST Days: 9.0 days
[6]; 40 mg/kg/day ip
  Effect MST % T/C: 143 % T/C
  MST Days: 10.0 days
[6]; 60 mg/kg/day ip
  Effect MST % T/C: 157 % T/C
  MST Days: 11.0 days
[6]; 80 mg/kg/day ip
  Effect MST % T/C: 157 % T/C
  MST Days: 11.0 days
[6]; 100 mg/kg/day ip
  Effect MST % T/C: 164 % T/C
  MST Days: 11.5 days
[6]; ip one day post-implant of 10^6 L1210 cells, vehicle water
  maximum T/C: 164%
